Key:
[1] = vaping study with 10 subjects rating throat feel and head feel dynamics; assay type: in vivo, human
Description: In rating the head feel dynamics and throat feel of the different compositions, the subjects used the following criteria: […]

α7 nAChRs = α7 nAChRs (Homo sapiens, UniProt P36544); assay type: cell-based
α4β2 nAChRs = α4β2 nAChRs (Homo sapiens, UniProt P17787+P43681); assay type: cell-based
Chain of α4β2 nAChRs (P43681 29-627 limits assumed): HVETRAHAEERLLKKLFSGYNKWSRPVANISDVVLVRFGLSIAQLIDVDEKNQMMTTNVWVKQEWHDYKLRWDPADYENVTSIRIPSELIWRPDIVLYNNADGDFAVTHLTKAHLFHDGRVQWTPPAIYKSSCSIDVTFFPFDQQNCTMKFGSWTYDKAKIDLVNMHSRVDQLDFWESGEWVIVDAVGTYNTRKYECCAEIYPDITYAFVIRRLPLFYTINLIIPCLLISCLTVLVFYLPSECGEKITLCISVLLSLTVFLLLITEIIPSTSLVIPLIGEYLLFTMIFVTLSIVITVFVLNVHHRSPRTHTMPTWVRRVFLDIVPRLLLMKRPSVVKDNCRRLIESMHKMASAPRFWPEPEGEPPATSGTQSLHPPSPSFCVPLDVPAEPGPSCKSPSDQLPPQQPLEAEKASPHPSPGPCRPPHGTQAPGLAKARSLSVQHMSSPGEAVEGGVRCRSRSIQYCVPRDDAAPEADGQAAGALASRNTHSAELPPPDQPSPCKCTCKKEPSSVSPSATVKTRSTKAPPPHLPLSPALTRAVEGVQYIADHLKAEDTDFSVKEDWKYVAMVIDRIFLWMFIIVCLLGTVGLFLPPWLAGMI
Chain of α4β2 nAChRs (P17787 26-502): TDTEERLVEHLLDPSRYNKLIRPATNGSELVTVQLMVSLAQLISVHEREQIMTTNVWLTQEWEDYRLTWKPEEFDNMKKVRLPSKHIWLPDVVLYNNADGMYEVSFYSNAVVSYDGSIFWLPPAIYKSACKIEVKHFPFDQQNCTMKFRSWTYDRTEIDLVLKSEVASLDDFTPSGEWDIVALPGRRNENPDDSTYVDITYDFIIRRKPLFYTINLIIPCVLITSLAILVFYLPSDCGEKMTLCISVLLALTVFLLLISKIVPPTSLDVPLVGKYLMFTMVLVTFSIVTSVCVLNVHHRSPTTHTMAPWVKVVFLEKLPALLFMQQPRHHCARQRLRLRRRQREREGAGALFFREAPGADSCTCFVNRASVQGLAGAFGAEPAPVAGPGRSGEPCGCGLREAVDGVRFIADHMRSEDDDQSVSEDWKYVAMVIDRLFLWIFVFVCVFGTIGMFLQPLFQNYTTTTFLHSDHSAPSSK

Chain of α7 nAChRs (P36544 23-502): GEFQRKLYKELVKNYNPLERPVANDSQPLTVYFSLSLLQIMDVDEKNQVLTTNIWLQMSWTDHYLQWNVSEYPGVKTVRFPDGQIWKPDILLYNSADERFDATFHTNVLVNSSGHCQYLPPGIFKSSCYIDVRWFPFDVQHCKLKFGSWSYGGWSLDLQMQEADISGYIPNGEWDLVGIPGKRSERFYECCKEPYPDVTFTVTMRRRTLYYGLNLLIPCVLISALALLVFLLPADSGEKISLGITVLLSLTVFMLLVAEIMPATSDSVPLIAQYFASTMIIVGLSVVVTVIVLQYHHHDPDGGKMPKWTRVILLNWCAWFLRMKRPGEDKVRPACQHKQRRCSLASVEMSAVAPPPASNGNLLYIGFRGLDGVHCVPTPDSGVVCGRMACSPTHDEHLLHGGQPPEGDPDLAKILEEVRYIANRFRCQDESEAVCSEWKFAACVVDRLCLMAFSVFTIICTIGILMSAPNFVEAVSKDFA

CN1CCCC1c1cccnc1 (racemic) [Synthetic RS racemic nicotine, RS-Nicotine]
Head Feel Dynamics compared with tobacco-derived counterpart ([1]; 0.3% loading level): slightly less effect | Head Feel Dynamics compared with tobacco-derived counterpart ([1]; 0.6% loading level): slightly less effect

CN1CCC[C@@H]1c1cccnc1 [Synthetic R nicotine, R nicotine]
agonist character in words (α7 nAChRs): full, weak agonist | agonist character in words (α4β2 nAChRs): partial agonist

CN1CCC[C@H]1c1cccnc1 [Synthetic S nicotine, S-nicotine]
Head Feel Dynamics compared with tobacco-derived counterpart ([1]; 0.3% loading level): same (within experimental error) | Head Feel Dynamics compared with tobacco-derived counterpart ([1]; 0.6% loading level): same (within experimental error)

Reference: patent US20170112182A1 (Next Generation Labs, LLC, priority 2015, published 2017)
